{"source": "patent US20070265164A1", "about": "“Active Substances for Increasing Pathogenic Defense in Plants and Methods for the Detection Thereof” (Bayer Cropscience GmbH, priority 2004, published 2007)", "key": {"aphids": {"tested_on": "aphids", "test": "Plant-free Sachez test, direct toxicity", "format": "in vivo", "from_the_text": "A direct toxicity of isoxadifen-ethyl (S3) against aphids was not detected in the plant-free Sachez test."}, "Oxophytodienoate (OPDA)": {"tested_on": "Oxophytodienoate (OPDA)", "test": "Oxophytodienoate (OPDA) concentration in leaves of treated plants, GC-MS/MS", "format": "in vivo, barley", "procedure": "(§1) Barley plants (cv. Baronesse) were grown under the conditions described in Example 1 and treated by spray application with safener isoxadifen-ethyl (S 3). The application rates were chosen as follows:\n(§2) (1) 30 [g a.i./ha]; (2) 150 [g a.i./ha]; (3) blank formulation (no active ingredient)\n[…] All samples were designed in each case as replications of 3 pots.\n(§3) The octadecanoates and jasmonates were processed from the leaves following a procedure described in the literature (Müller A, Düchting P and Weiler E W (2002)), A multiplex GC-MS/MS technique for the sensitive and quantitative single-run analysis of acidic phytohormones and related compounds, and its application to Arabidopsis thaliana. Planta, 216, 44-56).\n(§4) 300 mg of plant material were extracted for each measuring point.\n(§5) 50 pmol [^13C]2-JA and 100 pmol [17,17,17,18,18-^2H]-cis-OPDA were applied as internal standards. The extracts were purified via aminopropyl anion-exchange chromatography in miniature solid-phase exchanger columns which had been prepared in-house.\n(§6) The results are shown in Tables 3a to 3d, the values shown being in each case means of the 3 applications."}, "Jasmonate (JA)": {"tested_on": "Jasmonate (JA)", "test": "Jasmonate (JA) concentration in leaves of treated plants, GC-MS/MS", "format": "in vivo, barley", "procedure": "as §1, §2\nThe plant leaves were harvested at different points in time after the treatment (h=hours), viz. after 1 h, 2 h, 4 h, 6 h, 12 h, 24 h and 48 h. All samples were designed in each case as replications of 3 pots.\nas §3, §4, §5, §6"}}}
{"smiles": "CCOC(=O)C1=NOC(c2ccccc2)(c2ccccc2)C1", "note": "[S3, Isoxadifen-ethyl]", "values": [{"measurement": "Direct toxicity against aphids", "setting": "aphids", "result": "not detected"}, {"measurement": "Oxophytodienoate (OPDA) concentration", "setting": "Oxophytodienoate (OPDA); 30 g a.i/ha, 0 hours", "result": 2500, "unit": "pmol/g leaf tissue"}, {"measurement": "Oxophytodienoate (OPDA) concentration", "setting": "Oxophytodienoate (OPDA); 30 g a.i/ha, 1 hour", "result": 6500, "unit": "pmol/g leaf tissue"}, {"measurement": "Oxophytodienoate (OPDA) concentration", "setting": "Oxophytodienoate (OPDA); 30 g a.i/ha, 2 hours", "result": 3750, "unit": "pmol/g leaf tissue"}, {"measurement": "Oxophytodienoate (OPDA) concentration", "setting": "Oxophytodienoate (OPDA); 30 g a.i/ha, 4 hours", "result": 7000, "unit": "pmol/g leaf tissue"}, {"measurement": "Oxophytodienoate (OPDA) concentration", "setting": "Oxophytodienoate (OPDA); 30 g a.i/ha, 6 hours", "result": 9000, "unit": "pmol/g leaf tissue"}, {"measurement": "Oxophytodienoate (OPDA) concentration", "setting": "Oxophytodienoate (OPDA); 150 g a.i./ha, 0 hours", "result": 2600, "unit": "pmol/g leaf tissue"}, {"measurement": "Oxophytodienoate (OPDA) concentration", "setting": "Oxophytodienoate (OPDA); 150 g a.i./ha, 1 hour", "result": 2800, "unit": "pmol/g leaf tissue"}, {"measurement": "Oxophytodienoate (OPDA) concentration", "setting": "Oxophytodienoate (OPDA); 150 g a.i./ha, 2 hours", "result": 1800, "unit": "pmol/g leaf tissue"}, {"measurement": "Oxophytodienoate (OPDA) concentration", "setting": "Oxophytodienoate (OPDA); 150 g a.i./ha, 4 hours", "result": 2200, "unit": "pmol/g leaf tissue"}, {"measurement": "Oxophytodienoate (OPDA) concentration", "setting": "Oxophytodienoate (OPDA); 150 g a.i./ha, 6 hours", "result": 5100, "unit": "pmol/g leaf tissue"}, {"measurement": "Oxophytodienoate (OPDA) concentration", "setting": "Oxophytodienoate (OPDA); 150 g a.i./ha, 12 hours", "result": 2400, "unit": "pmol/g leaf tissue"}, {"measurement": "Oxophytodienoate (OPDA) concentration", "setting": "Oxophytodienoate (OPDA); 150 g a.i./ha, 24 hours", "result": 5100, "unit": "pmol/g leaf tissue"}, {"measurement": "Oxophytodienoate (OPDA) concentration", "setting": "Oxophytodienoate (OPDA); 150 g a.i./ha, 48 hours", "result": 1900, "unit": "pmol/g leaf tissue"}, {"measurement": "Increase in OPDA concentration relative to blank formulation samples", "setting": "Oxophytodienoate (OPDA); maximum over rates and times", "result": "≤ 5", "unit": "times"}, {"measurement": "Oxophytodienoate (OPDA) concentrations, range over the experiment", "setting": "Oxophytodienoate (OPDA); summary of Tables 3a, 3b, all rates and times", "result": "1800-9000 pmol/g leaf tissue"}, {"measurement": "Jasmonate (JA) concentration", "setting": "Jasmonate (JA); 30 g a.i/ha, 1 hour", "result": 600, "unit": "pmol/g leaf tissue"}, {"measurement": "Jasmonate (JA) concentration", "setting": "Jasmonate (JA); 30 g a.i/ha, 2 hours", "result": 320, "unit": "pmol/g leaf tissue"}, {"measurement": "Jasmonate (JA) concentration", "setting": "Jasmonate (JA); 30 g a.i/ha, 4 hours", "result": 790, "unit": "pmol/g leaf tissue"}, {"measurement": "Jasmonate (JA) concentration", "setting": "Jasmonate (JA); 30 g a.i/ha, 6 hours", "result": 620, "unit": "pmol/g leaf tissue"}, {"measurement": "Jasmonate (JA) concentration", "setting": "Jasmonate (JA); 150 g a.i./ha, 1 hour", "result": 290, "unit": "pmol/g leaf tissue"}, {"measurement": "Jasmonate (JA) concentration", "setting": "Jasmonate (JA); 150 g a.i./ha, 2 hours", "result": 280, "unit": "pmol/g leaf tissue"}, {"measurement": "Jasmonate (JA) concentration", "setting": "Jasmonate (JA); 150 g a.i./ha, 4 hours", "result": 270, "unit": "pmol/g leaf tissue"}, {"measurement": "Jasmonate (JA) concentration", "setting": "Jasmonate (JA); 150 g a.i./ha, 6 hours", "result": 275, "unit": "pmol/g leaf tissue"}, {"measurement": "Jasmonate (JA) concentration", "setting": "Jasmonate (JA); 150 g a.i./ha, 12 hours", "result": 155, "unit": "pmol/g leaf tissue"}, {"measurement": "Jasmonate (JA) concentration", "setting": "Jasmonate (JA); 150 g a.i./ha, 24 hours", "result": 265, "unit": "pmol/g leaf tissue"}, {"measurement": "Jasmonate (JA) concentration", "setting": "Jasmonate (JA); 150 g a.i./ha, 48 hours", "result": 320, "unit": "pmol/g leaf tissue"}, {"measurement": "Increase in JA concentration relative to blank formulation samples", "setting": "Jasmonate (JA); maximum over rates and times", "result": "≤ 5", "unit": "times"}, {"measurement": "Jasmonate (JA) concentrations, range over the experiment", "setting": "Jasmonate (JA); summary of Tables 3c, 3d, all rates and times", "result": "70-800 pmol/g leaf tissue"}]}
